Measured values as given in patent publication US6402037B1, “Two-photon upconverting dyes and applications” (The Research Foundation of State University of New York, priority 1995, dated 2002).

How the values were obtained:
[1] = Two-photon pumped cavity lasing of APSS solution filled hollow fiber (800 nm pump)
Text: As a comparison, the absorption spectrum of 1 mm-path length pure solvent (DMSO) is also provided. There is a strong absorption band around 400 nm due to APSS dye, and the solution is transparent in the 570˜1100 nm spectral range. However, the two-photon energy of ˜800 nm IR radiation falls into the strong absorption band. Therefore, an effective TPA process is expected by ˜800 nm excitation. […] The same effect is expected with increased path length of the solution sample with a given concentration.
The input 800 nm pump IR laser beam was provided by a pulsed dye laser pumped with a Q-switched and frequency-doubled Nd: YAG laser source. The beam size, pulse duration, angular divergence, and repetition rate of the input pump laser radiation were ˜3 mm, ˜5 ns, ˜1 mrad, and 1-10 Hz, respectively. The pump beam was focused by a 4×-microscope objective into the input end of a 15-cm long hollow quartz fiber filled with APSS, prepared as described in Example 16, in DMSO (do=0.012 M). […] Under the excitation of the input 800 nm pump beam, a strong TPA induced green fluorescence emission was seen from the hollow fiber. […]
The spectral intensity distribution of two-photon pumped cavity lasing from the above system is shown in FIG. 16 (dashed curve) at a pump energy level of Eo=290 μJ. For comparison, the one photon (at 400 nm) induced fluorescence spectrum of the same dye solution with the same concentration is also shown in FIG. 16 (solid curve). The bandwidth of cavity lasing was much narrower than the bandwidth of corresponding one-photon induced fluorescence emission without using any intracavity dispersion element. […] Therefore, the blue-side and central range of the fluorescence band would be expected to be more difficult to lase.
The measured single-pulse waveform was recorded by using a fast photodiode detector in conjunction with a 350 MHz oscilloscope (Tektronix 2467 with C1001 video camera). […] At a pump level of ˜150 μJ, the measured one-pass two-photon absorption in the 15 cm-long dye solution filled hollow fiber sample was only about ˜25%. […]

[2] = Energy transfer measurement (fluorescence of ASPS and TPPS in D2O)
Description: An experiment based on the fluorescence emission of porphyrin and ASPS was conducted to show energy transfer from the dye to the porphyrin. D2O solutions of the ASPS and TPPS were mixed in different concentrations in a quartz cuvette and placed in the sample compartment of a spectrofluorophotometer. […] The beam energy used in this experiment was approximately 50 mJ in a beam having a 4 mm diameter. […] The porphyrin without the ASPS was also irradiated with the IR laser light to determine any possible contributions from the porphyrin due to two-photon excitation. […] ASPS and TPPS solutions were mixed together and a series of spectra were collected to determine dependence of fluorescence emission spectrum on the concentration of the different molecular species.

[3] = Decomposition temperature (Td) by DSC thermogram; assay type: physicochemical; details: DSC under nitrogen
Description: Decomposition temperature (“Td”) of each dye was measured by differential scanning calorimetry (“DSC”) thermogram using a Shimadzu DSC-50GPC under nitrogen. Elemental: analysis were performed by Atlantic Microlab, Inc., P.O. Box 2288, Norcross, Ga. 30019. Proton NMR spectra, TV/visible absorption spectra, and UV/visible emission spectra were recorded using a Varian Gemini-300 300 MHz spectrometer, a Shimazdu UV-3101 PC spectrophotometer, and a Shimazdu RF5000U spectrofluorophotometer, respectively: TV/visible absorption spectra of dyes prepared in these Examples in DMF, are provided in FIG. 3.

CN(CCO)c1ccc(C=Cc2ccc(S(=O)(=O)CCCCCCO)cc2)cc1 [APSS]
central wavelength of one-photon fluorescence band ([1]; DMSO 0.012 M, 400 nm excitation): ~520 nm
strong linear absorption band ([1]; DMSO solution, 1 mm path): around 400 nm
transparent spectral range ([1]; DMSO solution, 1 mm path): 570˜1100 nm

O=S(=O)(O)c1ccc(-c2c3nc(c(-c4ccc(S(=O)(=O)O)cc4)c4ccc([nH]4)c(-c4ccc(S(=O)(=O)O)cc4)c4nc(c(-c5ccc(S(=O)(=O)O)cc5)c5ccc2[nH]5)C=C4)C=C3)cc1 [TPPS, meso tetra(p-sulfonaphenyl)porphyrin]
emission peak in mixture with ASPS ([2]; 1060 nm excitation): 653 nm
emission peak ([2]; excited at 610 nm): 650 nm

trans-4-[p-(-ethyl-N-hydroxyethylamino)styryl]-N-butansulfonpyridinum [dye4]
Decomposition temperature (Td) [3]: 241 °C
two-photon induced fluorescence emission peak ([2]; 1060 nm excitation): 610 nm
